Assay results from ChEMBL document CHEMBL4483862, “Open-source discovery of chemical leads for next-generation chemoprotective antimalarials” (2018).

System: Plasmodium berghei
Test: Luciferase/luciferin-expressing antifolate-resistant parasites were used to infect a culture of HepG2 cells that were pre-incubated with compounds. Infected hepatocytes emit light due to the luciferase reaction. Assay results are presented as the percent inhibition of light emission compared to control. […]
Format: functional
Conditions: sporozoite; for IC90: read-out: LUCIFERASE INFECTION ASSAY - IC90
[1] = read-out: LUCIFERASE INFECTION ASSAY - IC50

| SMILES | IC90 | IC50 [1] | other results |
| --- | --- | --- | --- |
| COc1ccc(S(=O)(=O)N(Cc2cccs2)c2ccc3c(c2)OCCO3)cc1NC(C)=O | > 10 µM |  | IC50 (HEPG2TOX_HILL_SLOPE 1.25, HEPG2TOX_R_SQUARED 0.989, PBLUC_HILL_SLOPE 1.59, PBLUC_R_SQUARED 0.297, read-out: LUCIFERASE INFECTION ASSAY - IC50): 4.15 µM |
| O=c1cc(CSc2nc3ccccc3c(=O)n2Cc2ccccc2)c2cc(O)c(O)cc2o1 | > 10 µM |  | IC50 (FFLUC_HILL_SLOPE 22, FFLUC_R_SQUARED 0.332, read-out: LUCIFERASE INFECTION ASSAY - IC50): > 10 µM |
| CN(C)CCNC(=O)c1ccc(-c2cn3c(-c4cccc(OC(F)(F)F)c4)cnc3cn2)cc1 | > 7.03 µM |  | IC50 (PBLUC_HILL_SLOPE 3.61, PBLUC_R_SQUARED 0.27, read-out: LUCIFERASE INFECTION ASSAY - IC50): 5.86 µM |
| COc1ccc(COC(=O)c2cc(C)nc3ccccc23)cc1F | 0.157 µM |  | IC50 (HEPG2TOX_HILL_SLOPE 0.536, HEPG2TOX_R_SQUARED 0.687, PBLUC_HILL_SLOPE 9.99, PBLUC_R_SQUARED 0.341, read-out: LUCIFERASE INFECTION ASSAY - IC50): 0.126 µM |
| Cc1nc2ccccn2c1C(=O)N/N=C/c1c(-c2ccccc2)n(-c2ccccc2)c2ccccc12 | > 10 µM | > 10 µM |  |
| CSc1nc(=NC(=O)NS(=O)(=O)Oc2ccc(Cl)cc2Cl)n2nc(C3CC3)cc2[nH]1 | > 6.74 µM | > 6.74 µM |  |
| Cc1cc(OCCN(C)C)cc2c1C1CCC3(C)C(=O)CCC3C1C=C2 (centres undefined) | > 9.34 µM |  | IC50 (FFLUC_HILL_SLOPE 6.52, FFLUC_R_SQUARED 0.182, PBLUC_HILL_SLOPE 2.32, PBLUC_R_SQUARED 0.511, read-out: LUCIFERASE INFECTION ASSAY - IC50): 5.67 µM |
| Cn1cc(CN2CCc3c(c(C(=O)NCc4nccs4)nn3Cc3ccccc3)C2)c2ccccc21 | 5.73 µM |  | IC50 (HEPG2TOX_HILL_SLOPE 6.66, HEPG2TOX_R_SQUARED 0.254, PBLUC_HILL_SLOPE 4.38, PBLUC_R_SQUARED 0.819, read-out: LUCIFERASE INFECTION ASSAY - IC50): 3.47 µM |
| N#Cc1c(OCC(F)(F)F)ccc(Sc2ccc(C(F)(F)F)cn2)c1OCC(F)(F)F | > 6.93 µM | 5.5 µM |  |
| Cc1cc(-c2nc3c(c(=O)[nH]c(=O)n3Cc3ccccc3)n2CC2CCCO2)cc(C)c1O (centres undefined) | > 10 µM | > 10 µM |  |
| CCCCCCCc1ccc(NC(=O)Nc2ccc(F)cc2)cc1 | > 10 µM |  | IC50 (FFLUC_HILL_SLOPE 255, FFLUC_R_SQUARED 0.421, PBLUC_HILL_SLOPE 1.52, PBLUC_R_SQUARED 0.706, read-out: LUCIFERASE INFECTION ASSAY - IC50): 2.49 µM |
| FC(F)(F)c1cc(NCc2ccc(Cl)cc2)nc(-c2ccccn2)n1 | > 9.05 µM |  | IC50 (PBLUC_HILL_SLOPE 3.87, PBLUC_R_SQUARED 0.118, read-out: LUCIFERASE INFECTION ASSAY - IC50): 5.66 µM |
| Cc1c(OCc2ccc(Br)cc2)ccc2c1OC(C)(C)C=C2 | 0.652 µM | 0.199 µM |  |
| O=C(O)c1c2c(nc3ccccc13)/C(=C/c1ccc(OC(F)F)cc1)CC2 | > 10 µM |  | IC50 (PBLUC_HILL_SLOPE 0.722, PBLUC_R_SQUARED 0.387, read-out: LUCIFERASE INFECTION ASSAY - IC50): 5.43 µM |
| OC[C@H]1O[C@@H](c2nc(-c3nc(-c4ccc5c(c4)OCO5)no3)cs2)C[C@@H]1O | 2.15 µM |  | IC50 (PBLUC_HILL_SLOPE 1.28, PBLUC_R_SQUARED 0.808, read-out: LUCIFERASE INFECTION ASSAY - IC50): 0.386 µM |
| CN(NC(=O)c1cccc(C(F)(F)F)c1)c1c(C#N)c(C(F)(F)F)nn1C | > 8.43 µM | > 8.43 µM |  |
| CCn1c(C)nc2cc(C(=O)NNC(=O)c3cc4c(C)nn(-c5cccc(C(F)(F)F)c5)c4s3)ccc21 | > 10 µM | > 10 µM |  |
| CCn1c(NC(=O)c2csc(Br)c2)nc2ccccc21 | > 10 µM |  | IC50 (PBLUC_HILL_SLOPE 0.956, PBLUC_R_SQUARED 0.162, read-out: LUCIFERASE INFECTION ASSAY - IC50): 5.44 µM |
| CC(C)C(CNc1nc(-c2ccsc2)nc2ccccc12)N1CCN(C)CC1 (centres undefined) | > 10 µM |  | IC50 (HEPG2TOX_HILL_SLOPE 10.4, HEPG2TOX_R_SQUARED 0.591, PBLUC_HILL_SLOPE 1.6, PBLUC_R_SQUARED 0.533, read-out: LUCIFERASE INFECTION ASSAY - IC50): 2.79 µM |
| OC(CN1CCN(CC(O)Cn2c3ccccc3c3ccccc32)CC1)Cn1c2ccccc2c2ccccc21 (centres undefined) | > 6.2 µM |  | IC50 (PBLUC_HILL_SLOPE 2.73, PBLUC_R_SQUARED 0.624, read-out: LUCIFERASE INFECTION ASSAY - IC50): 3.03 µM |
| CC(=O)Nc1ccc(S(=O)(=O)N2CCCc3cc(C)ccc32)cc1 | > 10 µM |  | IC50 (HEPG2TOX_HILL_SLOPE 2.72, HEPG2TOX_R_SQUARED 0.907, PBLUC_HILL_SLOPE 2.8, PBLUC_R_SQUARED 0.127, read-out: LUCIFERASE INFECTION ASSAY - IC50): 5.79 µM |

| SMILES | IC90 | IC50 [1] | other results |
| --- | --- | --- | --- |
| O=C(Nc1ccc(OC(F)(F)F)cc1)Nc1nnc(C(F)(F)F)s1 | 0.377 µM |  | IC50 (HEPG2TOX_HILL_SLOPE 2.11, HEPG2TOX_R_SQUARED 0.979, PBLUC_HILL_SLOPE 11.8, PBLUC_R_SQUARED 0.539, read-out: LUCIFERASE INFECTION ASSAY - IC50): 0.313 µM |
| Cc1ccc2sc(N(Cc3ccccc3)C(=O)CN3CCC(C(N)=O)CC3)nc2c1C | 4.19 µM |  | IC50 (PBLUC_HILL_SLOPE 23.7, PBLUC_R_SQUARED 0.191, read-out: LUCIFERASE INFECTION ASSAY - IC50): 3.82 µM |
| Cc1ccc(CSc2nc3c(c(-c4cccs4)c2C#N)CCCC3)cc1 | > 8.76 µM |  | IC50 (FFLUC_HILL_SLOPE 8.93, FFLUC_R_SQUARED 0.64, PBLUC_HILL_SLOPE 2.69, PBLUC_R_SQUARED 0.339, read-out: LUCIFERASE INFECTION ASSAY - IC50): 6.13 µM |
| Cc1ccc(Cn2nc(C)c3cc(C(=O)OCC(=O)c4cc(C)n(CC5CCCO5)c4C)sc32)cc1 (centres undefined) | > 10 µM | > 10 µM |  |
| Cc1ccc(Nc2nc(NCCO)c3ccccc3n2)cc1 | > 10 µM | 4.79 µM |  |
| N#Cc1c(N2CCCC2)nn(C(=O)Nc2ccc(Cl)c(Cl)c2)c1N | 3.89 µM |  | IC50 (PBLUC_HILL_SLOPE 16.1, PBLUC_R_SQUARED 0.491, read-out: LUCIFERASE INFECTION ASSAY - IC50): 3.39 µM |
| Cc1ccc(C(C)C)cc1OS(=O)(=O)c1ccc(S(=O)(=O)N(C)C)cc1[N+](=O)[O-] | > 10 µM | > 10 µM |  |
| COc1ccccc1CNc1cccc2cnccc12 | > 10 µM | > 10 µM |  |
| Cc1ccc(S(=O)(=O)c2nc(/C=C3\N(C)c4ccccc4C3(C)C)sc2Cl)cc1 | > 10 µM |  | IC50 (FFLUC_HILL_SLOPE 1.82, FFLUC_R_SQUARED 0.745, read-out: LUCIFERASE INFECTION ASSAY - IC50): > 10 µM |
| O=C(Nc1ccc(Oc2cc(C(F)(F)F)cc(C(F)(F)F)c2)cc1)Nc1ccc(OC(F)(F)F)cc1 | 0.304 µM |  | IC50 (FFLUC_HILL_SLOPE 4.18, FFLUC_R_SQUARED 0.0377, HEPG2TOX_HILL_SLOPE 3.88, HEPG2TOX_R_SQUARED 0.972, PBLUC_HILL_SLOPE 90.6, PBLUC_R_SQUARED 0.773, read-out: LUCIFERASE INFECTION ASSAY - IC50): 0.297 µM |
| O=C(Nc1ccc(N2CCCCCC2)cc1)c1ccc[nH]1 | 2.88 µM |  | IC50 (PBLUC_HILL_SLOPE 1.36, PBLUC_R_SQUARED 0.768, read-out: LUCIFERASE INFECTION ASSAY - IC50): 0.569 µM |
| Cc1ccc(S(=O)(=O)Nc2ccc(Nc3nccn4c(-c5ccccc5N(C)C)cnc34)cc2)cc1 | > 6.62 µM |  | IC50 (PBLUC_HILL_SLOPE 3.26, PBLUC_R_SQUARED 0.262, read-out: LUCIFERASE INFECTION ASSAY - IC50): 3.47 µM |
| COc1ccc(-c2cnc3cnc(-c4cccc(C(=O)N(C)C)c4)cn23)cc1 | 4.08 µM |  | IC50 (PBLUC_HILL_SLOPE 11.5, PBLUC_R_SQUARED 0.453, read-out: LUCIFERASE INFECTION ASSAY - IC50): 3.37 µM |
| O=C(Nc1ccccc1)c1ccc(CN2C(=O)NC(c3ccccc3)(c3ccccc3)C2=O)cc1 | 3.94 µM |  | IC50 (FFLUC_HILL_SLOPE 6.57, FFLUC_R_SQUARED 0.404, PBLUC_HILL_SLOPE 14.6, PBLUC_R_SQUARED 0.481, read-out: LUCIFERASE INFECTION ASSAY - IC50): 3.39 µM |
| CC(Oc1ccccc1[N+](=O)[O-])C(=O)N(c1nccs1)C1CCCCC1 (centres undefined) | > 10 µM | > 10 µM |  |
| CCCCOc1ccc(Nc2nc(C(N)c3ccccc3Cl)cs2)nn1 (centres undefined) | 8.44 µM |  | IC50 (PBLUC_HILL_SLOPE 6.47, PBLUC_R_SQUARED 0.485, read-out: LUCIFERASE INFECTION ASSAY - IC50): 6.01 µM |
| Clc1ccc(-c2cnc3cnc(-c4cnn(Cc5ccccc5)c4)cn23)cc1 | 3.3 µM |  | IC50 (FFLUC_HILL_SLOPE 15.7, FFLUC_R_SQUARED 0.271, HEPG2TOX_HILL_SLOPE 2.48, HEPG2TOX_R_SQUARED 0.0283, PBLUC_HILL_SLOPE 11.5, PBLUC_R_SQUARED 0.641, read-out: LUCIFERASE INFECTION ASSAY - IC50): 2.73 µM |
| Clc1ccc2c(NCCCNc3ccccn3)ncnc2c1 | > 10 µM | > 10 µM |  |
| O=C(Nc1ccc(Cl)cc1)Nc1ccccc1SCc1ncc(C(F)(F)F)cc1Cl | > 6.99 µM |  | IC50 (HEPG2TOX_HILL_SLOPE 7.43, HEPG2TOX_R_SQUARED 0.87, PBLUC_HILL_SLOPE 2.47, PBLUC_R_SQUARED 0.266, read-out: LUCIFERASE INFECTION ASSAY - IC50): 4.63 µM |
| O=C(NC1CCN(c2nccc(C(F)(F)F)n2)CC1)c1ccco1 | > 9.7 µM |  | IC50 (PBLUC_HILL_SLOPE 0.897, PBLUC_R_SQUARED 0.83, read-out: LUCIFERASE INFECTION ASSAY - IC50): 2.6 µM |
| O=C(NNc1ccccc1)c1cccs1 | 7.33 µM |  | IC50 (HEPG2TOX_HILL_SLOPE 91.6, HEPG2TOX_R_SQUARED 0.623, PBLUC_HILL_SLOPE 5.23, PBLUC_R_SQUARED 0.266, read-out: LUCIFERASE INFECTION ASSAY - IC50): 4.82 µM |
